The values below come from patent US20230099739A1, “JAK KINASE INHIBITOR AND PREPARATION AND APPLICATION THEREOF” (MINGHUI PHARMACEUTICAL (SHANGHAI) LIMITED, priority 2020, published 2023).

Experiment [1] relates to Ba/F3-TEL-JAK2 cells. The experiment can be described thus: CellTiter-Glo proliferation of Ba/F3-TEL-JAK2 cells. It counts as cell-based. To be noted: Mus musculus, murine B lymphocyte BaF3 with TEL-human JAK2 kinase domain. The source says:
(§1) In murine B lymphocytes BaF3, recombinant genes (including TEL and human JAK1, TYK2, JAK2, JAK3 kinase domains) were transferred by using genetic engineering technology, in which TEL could promote phosphorylation of TEL-JAK1 or TEL-TYK2 kinase dimer and continuously activate, thus allowing cells to grow dependent on the activity of this recombinant kinase. […] CellTiter-Glo method was used to detect the proliferation of genetically engineered cell lines Ba/F3-TEL-JAK1, Ba/F3-TEL-TYK2, Ba/F3-TEL-JAK2, and Ba/F3-TEL-JAK3 which was cultured in vitro. Graphpad 7.0 was used to fit curves and IC 50 values were calculated.
A general note: Cellular ATP, detected with luciferase, serves as a proxy for viable cell number.

In experiment [2] the test system is Ba/F3-TEL-JAK3 cells. Nature of the experiment: CellTiter-Glo proliferation of Ba/F3-TEL-JAK3 cells. It is filed as cell-based. To be noted: Mus musculus, murine B lymphocyte BaF3 with TEL-human JAK3 kinase domain.
Excerpt: as §1

Experiment [3] has as its target JAK2 (Homo sapiens, UniProt O60674). The experiment can be described thus: Caliper mobility shift kinase assay, JAK2. It counts as biochemical. To be noted: 1 mM ATP concentration. Here is the method: (§2) The in vitro inhibitory effect of compounds on JAK1, JAK2, JAK3 or TYK2 kinase was detected by Caliper mobility shift assay. Compounds to be tested were dissolved in DMSO, and prepared into 10 mM stock solutions. Stock solutions of the compounds were prepared into 50× working solutions (10 concentrations in total) through gradient dilution using DMSO, and each concentration of working solution was transferred to an Echo® master plate. The Echo® non-contact nanoliter sonic pipetting system was used to transfer […] of compound solution or DMSO of the corresponding concentration from the master plate to the 384-well reaction plate. Then, 10 μL of 2.5× kinase solution was added to the 384-well reaction plate. After 10 minutes of incubation at room temperature, 10 μL of mixed solution of 2.5×FAM-labeled polypeptide and ATP (final ATP concentration was 1 mM) was added. 30 μL of stop reagent was added, detected on Caliper, and the conversion value was calculated, i.e. the height of the product peak divided by the sum of the heights of the substrate and product peaks. […] Percent inhibition=(max−conversion)/(max−min)×100, wherein “max” represents the conversion reading for the DMSO control and “min” represents the conversion reading for the low value control.

For experiment [4], the system named is Ba/F3-TEL-TYK2 cells. The experiment can be described thus: CellTiter-Glo proliferation of Ba/F3-TEL-TYK2 cells. It counts as cell-based. The conditions noted are these: Mus musculus, murine B lymphocyte BaF3 with TEL-human TYK2 kinase domain.
Excerpt: as §1

Experiment [5] deals with T1, JAK3 (Homo sapiens, UniProt P52333).
T1 sequence (P52333 1-1124): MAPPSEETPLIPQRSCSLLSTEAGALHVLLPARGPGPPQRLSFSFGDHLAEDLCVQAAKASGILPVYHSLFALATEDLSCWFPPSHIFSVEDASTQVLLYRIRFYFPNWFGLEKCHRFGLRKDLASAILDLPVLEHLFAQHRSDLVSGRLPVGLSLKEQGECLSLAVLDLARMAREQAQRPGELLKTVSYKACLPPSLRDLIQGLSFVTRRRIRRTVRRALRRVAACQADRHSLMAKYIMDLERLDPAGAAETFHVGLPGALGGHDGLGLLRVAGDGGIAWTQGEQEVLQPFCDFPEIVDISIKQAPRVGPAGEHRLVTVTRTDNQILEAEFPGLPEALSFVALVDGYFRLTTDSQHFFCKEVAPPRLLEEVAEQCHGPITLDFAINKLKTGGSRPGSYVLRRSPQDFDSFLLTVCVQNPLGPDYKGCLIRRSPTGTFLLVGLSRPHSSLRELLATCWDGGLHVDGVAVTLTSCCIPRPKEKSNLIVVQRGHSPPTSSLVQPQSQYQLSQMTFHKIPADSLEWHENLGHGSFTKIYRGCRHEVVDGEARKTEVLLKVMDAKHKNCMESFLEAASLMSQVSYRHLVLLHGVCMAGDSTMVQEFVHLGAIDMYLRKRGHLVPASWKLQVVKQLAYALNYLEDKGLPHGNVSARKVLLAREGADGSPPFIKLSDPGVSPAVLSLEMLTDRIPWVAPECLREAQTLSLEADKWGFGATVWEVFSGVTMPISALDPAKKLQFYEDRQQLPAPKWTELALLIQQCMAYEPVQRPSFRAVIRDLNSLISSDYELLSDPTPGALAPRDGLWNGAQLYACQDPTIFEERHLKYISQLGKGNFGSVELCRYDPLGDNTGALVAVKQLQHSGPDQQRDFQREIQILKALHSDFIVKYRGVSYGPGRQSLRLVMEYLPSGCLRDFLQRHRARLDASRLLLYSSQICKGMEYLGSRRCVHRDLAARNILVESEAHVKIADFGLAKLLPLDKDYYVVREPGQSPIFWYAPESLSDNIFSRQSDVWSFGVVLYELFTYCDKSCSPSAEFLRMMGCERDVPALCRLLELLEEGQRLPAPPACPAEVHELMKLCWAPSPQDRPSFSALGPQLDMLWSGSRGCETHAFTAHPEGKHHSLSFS
Nature of the experiment: Caliper mobility shift kinase assay, JAK3. It counts as biochemical. The conditions noted are these: 1 mM ATP concentration. As to the method:
as §2

The target in experiment [6] is TYK2 (Homo sapiens, UniProt P29597). Nature of the experiment: Caliper mobility shift kinase assay, TYK2. To be noted: 1 mM ATP concentration. It counts as biochemical. As to the method:
as §2

Experiment [7] has as its system Ba/F3-TEL-JAK1 cells. Nature of the experiment: CellTiter-Glo proliferation of Ba/F3-TEL-JAK1 cells. To be noted: Mus musculus, murine B lymphocyte BaF3 with TEL-human JAK1 kinase domain. It counts as cell-based.
Excerpt: as §1

The target of experiment [8] is JAK1 (Homo sapiens, UniProt P23458). Nature of the experiment: Caliper mobility shift kinase assay, JAK1. It counts as biochemical. To be noted: 1 mM ATP concentration. As to the method:
as §2

Where only a bound is given, the exact number is not on record here.

Chain of JAK1 (P23458 whole entry): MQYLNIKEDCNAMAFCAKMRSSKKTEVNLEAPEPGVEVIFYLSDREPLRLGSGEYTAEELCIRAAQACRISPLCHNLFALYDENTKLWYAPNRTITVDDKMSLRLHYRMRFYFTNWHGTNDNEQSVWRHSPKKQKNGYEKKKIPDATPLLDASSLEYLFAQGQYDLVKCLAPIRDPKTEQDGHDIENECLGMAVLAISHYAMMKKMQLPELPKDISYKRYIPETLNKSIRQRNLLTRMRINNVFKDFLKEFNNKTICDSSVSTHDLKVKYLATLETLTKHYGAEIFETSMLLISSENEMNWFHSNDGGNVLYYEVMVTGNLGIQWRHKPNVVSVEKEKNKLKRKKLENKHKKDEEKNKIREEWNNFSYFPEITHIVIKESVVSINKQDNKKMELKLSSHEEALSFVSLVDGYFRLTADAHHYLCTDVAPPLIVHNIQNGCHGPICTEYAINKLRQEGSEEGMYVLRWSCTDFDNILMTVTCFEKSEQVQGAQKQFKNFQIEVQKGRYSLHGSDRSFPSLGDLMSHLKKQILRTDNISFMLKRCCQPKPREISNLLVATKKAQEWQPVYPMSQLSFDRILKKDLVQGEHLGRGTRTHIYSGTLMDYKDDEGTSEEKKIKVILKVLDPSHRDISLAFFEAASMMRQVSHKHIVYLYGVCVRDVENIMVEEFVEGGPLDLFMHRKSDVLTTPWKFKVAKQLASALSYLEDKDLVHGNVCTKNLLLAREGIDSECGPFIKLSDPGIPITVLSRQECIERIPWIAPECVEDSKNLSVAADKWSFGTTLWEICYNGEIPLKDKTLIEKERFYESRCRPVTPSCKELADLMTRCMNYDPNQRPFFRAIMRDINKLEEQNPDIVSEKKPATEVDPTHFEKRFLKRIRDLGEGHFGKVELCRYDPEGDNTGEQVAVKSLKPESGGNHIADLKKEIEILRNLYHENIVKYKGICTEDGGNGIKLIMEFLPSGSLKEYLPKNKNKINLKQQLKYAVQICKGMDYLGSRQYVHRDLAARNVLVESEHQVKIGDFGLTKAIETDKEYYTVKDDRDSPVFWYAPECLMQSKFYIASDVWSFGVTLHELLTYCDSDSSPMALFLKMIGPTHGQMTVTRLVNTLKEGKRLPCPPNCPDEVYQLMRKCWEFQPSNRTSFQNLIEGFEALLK
Chain of TYK2 (P29597 whole entry): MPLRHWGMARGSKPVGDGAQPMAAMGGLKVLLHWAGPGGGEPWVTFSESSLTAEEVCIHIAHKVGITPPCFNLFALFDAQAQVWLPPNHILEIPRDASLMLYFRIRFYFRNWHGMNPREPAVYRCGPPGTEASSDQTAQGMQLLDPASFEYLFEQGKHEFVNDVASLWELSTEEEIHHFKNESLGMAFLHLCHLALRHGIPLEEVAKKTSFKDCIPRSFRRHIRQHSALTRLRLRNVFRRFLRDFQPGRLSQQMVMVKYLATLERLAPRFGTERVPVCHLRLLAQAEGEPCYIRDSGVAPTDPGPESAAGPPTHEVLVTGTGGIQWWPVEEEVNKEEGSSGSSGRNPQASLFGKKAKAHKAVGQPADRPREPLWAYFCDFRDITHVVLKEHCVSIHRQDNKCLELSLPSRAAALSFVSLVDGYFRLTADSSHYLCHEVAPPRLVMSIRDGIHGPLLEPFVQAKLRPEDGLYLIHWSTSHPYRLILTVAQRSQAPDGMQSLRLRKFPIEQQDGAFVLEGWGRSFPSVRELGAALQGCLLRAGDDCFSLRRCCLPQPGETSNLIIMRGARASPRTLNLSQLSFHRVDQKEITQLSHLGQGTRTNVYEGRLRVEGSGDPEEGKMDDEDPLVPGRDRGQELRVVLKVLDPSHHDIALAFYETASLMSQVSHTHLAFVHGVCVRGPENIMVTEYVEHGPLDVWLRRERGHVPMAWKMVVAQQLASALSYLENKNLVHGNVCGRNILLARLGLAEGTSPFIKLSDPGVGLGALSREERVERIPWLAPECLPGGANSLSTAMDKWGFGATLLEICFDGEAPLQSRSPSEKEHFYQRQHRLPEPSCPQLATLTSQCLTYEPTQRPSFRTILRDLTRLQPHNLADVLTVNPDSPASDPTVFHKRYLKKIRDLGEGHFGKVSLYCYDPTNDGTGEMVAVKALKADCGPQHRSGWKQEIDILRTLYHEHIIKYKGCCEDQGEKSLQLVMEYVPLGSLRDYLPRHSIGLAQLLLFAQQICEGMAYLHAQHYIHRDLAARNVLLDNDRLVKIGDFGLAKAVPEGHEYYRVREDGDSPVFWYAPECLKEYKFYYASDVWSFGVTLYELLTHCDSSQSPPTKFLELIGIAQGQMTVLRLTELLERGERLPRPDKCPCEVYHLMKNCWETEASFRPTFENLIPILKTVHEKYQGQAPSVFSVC
Chain of JAK2 (O60674 whole entry): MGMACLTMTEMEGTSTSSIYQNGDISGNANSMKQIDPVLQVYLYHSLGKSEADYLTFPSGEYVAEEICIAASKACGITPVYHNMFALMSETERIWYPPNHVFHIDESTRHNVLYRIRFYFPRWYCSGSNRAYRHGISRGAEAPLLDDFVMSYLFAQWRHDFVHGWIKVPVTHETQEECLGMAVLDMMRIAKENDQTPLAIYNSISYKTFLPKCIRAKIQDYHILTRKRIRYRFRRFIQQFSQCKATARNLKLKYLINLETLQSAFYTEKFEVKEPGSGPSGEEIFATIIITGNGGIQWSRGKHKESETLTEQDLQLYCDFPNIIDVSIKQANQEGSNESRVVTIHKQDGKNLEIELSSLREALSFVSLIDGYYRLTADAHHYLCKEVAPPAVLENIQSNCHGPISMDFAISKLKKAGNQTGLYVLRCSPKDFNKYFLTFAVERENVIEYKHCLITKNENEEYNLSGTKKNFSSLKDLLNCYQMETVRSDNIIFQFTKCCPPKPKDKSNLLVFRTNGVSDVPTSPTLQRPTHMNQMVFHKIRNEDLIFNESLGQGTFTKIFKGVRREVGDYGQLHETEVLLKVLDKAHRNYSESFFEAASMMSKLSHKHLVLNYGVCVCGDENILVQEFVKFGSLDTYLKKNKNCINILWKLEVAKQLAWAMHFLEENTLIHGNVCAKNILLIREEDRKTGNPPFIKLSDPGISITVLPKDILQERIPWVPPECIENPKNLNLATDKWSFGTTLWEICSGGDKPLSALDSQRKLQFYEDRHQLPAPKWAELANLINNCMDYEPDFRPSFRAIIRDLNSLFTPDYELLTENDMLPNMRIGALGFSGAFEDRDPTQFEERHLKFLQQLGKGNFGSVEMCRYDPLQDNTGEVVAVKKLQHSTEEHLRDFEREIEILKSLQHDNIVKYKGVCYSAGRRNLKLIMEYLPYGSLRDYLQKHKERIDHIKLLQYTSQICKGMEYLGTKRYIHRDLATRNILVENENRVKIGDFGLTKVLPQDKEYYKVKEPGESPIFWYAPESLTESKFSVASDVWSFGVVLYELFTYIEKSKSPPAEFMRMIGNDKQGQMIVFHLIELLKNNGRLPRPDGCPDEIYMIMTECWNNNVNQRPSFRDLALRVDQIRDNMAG

Turning to `Cn1cc(Nc2nccc(N3CC4CSC(C3)N4C(=O)[C@@H]3CC3(F)F)n2)cn1` (stereo partly shown) [Example 1], the IC50 (as a rule, the point on the concentration scale where inhibition reaches its midpoint) in experiment [1] worked out at 0.087 µM; in experiment [2] it was 3.69 µM; in experiment [3], 0.027 µM; in experiment [4] it was 0.111 µM; in experiment [5] it was 3.47 µM; in experiment [6], 0.0042 µM. The IC50 in experiment [7] is 0.031 µM; in experiment [8] it was 0.032 µM.

As to `O=C([C@@H]1CC1(F)F)N1[C@H]2CS[C@@H]1CN(c1ccnc(Nc3cnn(CCO)c3)n1)C2` [Example 2], the IC50 in experiment [1] is 0.173 µM; in experiment [2], 8.64 µM; in experiment [3], 0.0014 µM; in experiment [4], 0.192 µM; in experiment [5], 2.27 µM; in experiment [6] it was 0.0017 µM. Moreover, the figures for the IC50 in experiment [7] and in experiment [8] were 0.314 µM and 0.01 µM, respectively.

`O=C([C@@H]1CC1(F)F)N1[C@H]2CS[C@@H]1CN(c1ccnc(Nc3cnn(C4(CO)CC4)c3)n1)C2` [Example 3]: the IC50 in experiment [1] is 0.427 µM; in experiment [2] it was > 10 µM; in experiment [4] it was 0.556 µM; in experiment [6], 0.0029 µM; in experiment [7], 0.056 µM; in experiment [8] it was 0.107 µM.
